Values quoted from earlier work as cited in patent publication US20100080846A1, “DIPYRIDAMOLE AND […] ACID FORMULATIONS AND PROCESS FOR PREPARING SAME” (priority 2008, published 2010).

Conditions: above a pH of 4

OCCN(CCO)c1nc(N2CCCCC2)c2nc(N(CCO)CCO)nc(N3CCCCC3)c2n1 [Dipyridamole, 2,6-bis-(diethanolamino)-4,8-dipiperidino-(5,4-d)-pyrimidine]
solubility in water: practically insoluble
